Data taken from PubChem BioAssay (NCI).
Values joined by “and” are separate entries in the source; they are usually repeats but may differ in a detail not shown here. Identical values can stand only once.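 Test compounds were applied to cells in 96-well plates for 48 hours at 5 doses. GI50: concentration for 50% inhibition of growth. The concentration for full growth arrest is given as TGI.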

Test system: MDA-MB-468 breast
Assay: NCI-60 cell line screen, 48 h

SMILES | GI50 | TGI
CN1CCN(C(=O)[C@@]2(C)CC[C@]3(C)CC[C@]4(C)C(=CC[C@@H]5[C@@]6(C)CC[C@H](OC(=O)c7cccnc7)C(C)(C)[C@@H]6CC[C@]54C)[C@@H]3C2)CC1 | 1710 nM | 3510 nM
COc1ccc(-c2nsc3c2NC(=O)CC3c2cccc(F)c2)cc1 (stereo unspecified) | 1940 nM | 6980 nM
C#Cc1cccc(Nc2ncnc3ccc(-c4cnc(N)nc4)cc23)c1 | 376 nM | 1770 nM
Cn1cc(-c2csc(-c3cn(CCCN4CCCCC4)c4ccc(Br)cc34)n2)c2cccnc21 | 1860 nM | 3550 nM
CCc1c2c(nc3ccc(OC(=O)OCc4ccc(B5OC(C)(C)C(C)(C)O5)cc4)cc13)-c1cc3c(c(=O)n1C2)COC(=O)[C@]3(O)CC | < 10 nM | 54.5 nM
CCCCCCCCCCCCSC1=CC(=O)C=CC1=O | 7090 nM | > 34600 nM
CC[C@H](C)C(=O)O[C@H]1CCC=C2C=C[C@H](C)[C@H](CC[C@@H]3C[C@@H](O)CC(=O)O3)[C@H]21 | 3130 nM | 11600 nM
COc1ccc2c(c1)C(=O)/C(=C/c1cccc(OCC(=O)c3ccc([N+](=O)[O-])cc3)c1)CO2 | 1580 nM | 3510 nM
CN(C)C[C@@H]1CCn2cc(c3ccccc32)C2=C(C(=O)NC2=O)c2cn(c3ccccc23)CCO1 | 2170 nM | > 10000 nM
Cc1ccc2c(c1)C(=O)/C(=C/c1cccc(OCC(=O)c3ccc(Cl)cc3)c1)CS2 | 2410 nM | 7070 nM
COc1ccccc1-c1ccc2c(N)c(C(=O)c3ccc4c(c3)OCO4)sc2n1 | 2430 nM | 8640 nM
CCN(CC)CCOc1ccc(NC(=O)C(C(C)C)N2C(=O)/C(=C/c3ccc(Br)cc3)SC2=S)cc1 (stereo unspecified) | 1920 nM | 3940 nM
O=C1NC(c2cccc3ccccc23)Nc2ccccc21 (stereo unspecified) | 127 nM | > 100000 nM
COC1/C=C/OC2(C)Oc3c(C)c(O)c4c(O)c(c(/C=N/N(c5ccccc5)c5ccccc5)c(O)c4c3C2=O)NC(=O)C(C)=C/C=C/C(C)C(O)C(C)C(O)C(C)C(OC(C)=O)C1C (stereo unspecified) | 1840 nM | 7500 nM
O=C(CCN1CCCC1)Nc1ccc2c(Nc3ccc(Br)cc3)c3ccccc3nc2c1 | 1720 nM | 3270 nM
COc1ccc(C2CC(c3ccc4ccccc4c3)=NN2c2nc(O)c(C3=c4cc(Cl)ccc4=NC3=O)s2)cc1 (stereo unspecified) | 21 nM and < 5 nM | 
CN(C)CCN(C)c1ccc2ncc(C#Cc3cncc(C(=O)Nc4ccc(CN5CCN(C)CC5)c(C(F)(F)F)c4)c3)n2n1 | 3080 nM | 9910 nM
CN(C)c1ccc2cc3c(cc2c1)Oc1ccccc1N3.[Cl][Zn][Cl] | 1090 nM | 3150 nM
CCCCNP1(NCCCC)=NP(NCCCC)(NCCCC)=NP(NCCCC)(NCCCC)=NP(NCCCC)(NCCCC)=N1 | 194 nM | 2910 nM
Fc1ccc(-c2c(-c3ccncc3)[nH]c3cccnc23)cc1 | 3780 nM | 24700 nM
CC1=C[C@H]2O[C@@H]3C[C@H]4OC(=O)/C=C\C=C\[C@H]([C@@H](C)O)OCC/C(C)=C/C(=O)OC[C@@]2(CC1)[C@]4(C)[C@]31CO1 | 3.56 nM | 12.4 nM

SMILES | GI50 | TGI
COc1ccc(Cl)cc1Nc1nc(C(F)(F)F)ccc1C(=O)N/N=C/c1ccccc1Cl | 1850 nM | 18500 nM
CCN(CC)CCNc1ccc(N=Nc2cnc3ccccc3c2)c2ccccc12 | 1340 nM | 2640 nM
O=C(C(=O)c1cccnc1)c1cccnc1 | > 100000 nM | > 100000 nM
O=C(Nc1cccc(-n2ccc3c(NC(=O)c4ccccc4)nccc32)c1)c1ccc(Cl)c(Cl)c1 | 176 nM | 903 nM
N#Cc1ccc(C(=O)c2cnn(-c3ccc(F)cc3)c2N)cc1 | > 25000 nM | > 25000 nM
CC(=O)OCC1OC([S-])C(OC(C)=O)C(OC(C)=O)C1OC(C)=O.[Au+].c1ccc(CN2[CH-]N(Cc3ccccc3)C(c3ccccc3)=C2c2ccccc2)cc1 | 1630 nM and 306 nM | 3410 nM and 1170 nM
CCCn1cc(/C=N\N=C2\C(=O)Nc3ccc(C)cc32)c2ccccc21 | 1690 nM | 5780 nM
COc1ccc2[nH]cc(C3(c4c[nH]c5ccc(OC)cc45)C(=O)Nc4ccc(Cl)cc43)c2c1 | 2500 nM | 7850 nM
O=C1/C=C/[C@@H](O)[C@@H]2C[C@@H](O)C[C@H]2/C=C/CCC[C@H](CCc2ccc(NC(=S)Nc3ccc4c(c3)C(=O)OC43c4ccc(O)cc4Oc4cc(O)ccc43)cc2)O1 | 178 nM | 449 nM
CC[C@H](C)[C@H](NC(=O)[C@H]1CCCCN1C)C(=O)N(C)[C@H](C[C@@H](OC(C)=O)c1nc(C(=O)NC23C4C5C2C2C3C4C52C(=O)OC)cs1)C(C)C (stereo partly specified) | 0.428 nM and < 2.5 nM | 6.95 nM and < 2.5 nM
CN(CCCCCCCCNc1ccnc2ccccc12)Cc1ccc(-c2ccc(-c3ccc(C#N)cc3)s2)cc1 | 69.8 nM | 1290 nM
Oc1ccccc1/C=N\Nc1ccccc1 | 4930 nM | 55800 nM
Cc1cnc(-c2ccc(-c3ccc(NC(=O)Nc4cccc(C(F)(F)F)c4)cc3F)c3c2C(=O)NC3)[nH]1 | 12600 nM | 31100 nM
C=C1C(=O)O[C@H]2[C@H]1CC/C(CNC(=O)C(C)c1ccc(CC(C)C)cc1)=C\CC[C@@]1(C)O[C@@H]21 (stereo partly specified) | 1430 nM | 3120 nM
N#Cc1ccc(O)c(C2=NCC(c3ccc(-c4ccccc4)cc3)O2)c1 (stereo unspecified) | 256 nM | 1810 nM
COc1ccc(C(=O)/C=C/c2c(C(F)(F)F)nc3ccccn23)cc1OC | 1810 nM | 5060 nM
O=C1c2c(c3c4ccccc4n(CCCCCCN4CCOCC4)c3c3[nH]c4ccccc4c23)C(=O)N1O | 1970 nM | 4690 nM
O=c1[nH][nH]c(=O)c2c(O)c(-c3ccccc3)ncc12 | 25200 nM and 48200 nM | 55800 nM and 235000 nM
COc1cc(C(=O)c2cnc(-c3ccc4cc[nH]c4c3)[nH]2)cc(OC)c1OC | 32.7 nM | 2660 nM
O=c1oc2ccc(I)cc2c(=O)n1-c1ccc(I)cc1F | 521 nM | 2940 nM
